Assay results from patent US6211244A, “Calcium receptor-active compounds” (priority 1995, dated 2001).
Where a name gives a salt, the structure may show the parent alone.

Key:
[1] = target: T1, human calcium receptor (Homo sapiens, UniProt P41180, R990G); assay: increases in [Ca^2+ ]i in HEK-293 cells expressing the human calcium receptor (fura-2 loaded HEK 293/pHuPCaR4.0 cells), % activity; type: cell-based
T1 construct: expressed in transfected cells; host or cells: HEK 293
T1 sequence (P41180 20-1078 R990G): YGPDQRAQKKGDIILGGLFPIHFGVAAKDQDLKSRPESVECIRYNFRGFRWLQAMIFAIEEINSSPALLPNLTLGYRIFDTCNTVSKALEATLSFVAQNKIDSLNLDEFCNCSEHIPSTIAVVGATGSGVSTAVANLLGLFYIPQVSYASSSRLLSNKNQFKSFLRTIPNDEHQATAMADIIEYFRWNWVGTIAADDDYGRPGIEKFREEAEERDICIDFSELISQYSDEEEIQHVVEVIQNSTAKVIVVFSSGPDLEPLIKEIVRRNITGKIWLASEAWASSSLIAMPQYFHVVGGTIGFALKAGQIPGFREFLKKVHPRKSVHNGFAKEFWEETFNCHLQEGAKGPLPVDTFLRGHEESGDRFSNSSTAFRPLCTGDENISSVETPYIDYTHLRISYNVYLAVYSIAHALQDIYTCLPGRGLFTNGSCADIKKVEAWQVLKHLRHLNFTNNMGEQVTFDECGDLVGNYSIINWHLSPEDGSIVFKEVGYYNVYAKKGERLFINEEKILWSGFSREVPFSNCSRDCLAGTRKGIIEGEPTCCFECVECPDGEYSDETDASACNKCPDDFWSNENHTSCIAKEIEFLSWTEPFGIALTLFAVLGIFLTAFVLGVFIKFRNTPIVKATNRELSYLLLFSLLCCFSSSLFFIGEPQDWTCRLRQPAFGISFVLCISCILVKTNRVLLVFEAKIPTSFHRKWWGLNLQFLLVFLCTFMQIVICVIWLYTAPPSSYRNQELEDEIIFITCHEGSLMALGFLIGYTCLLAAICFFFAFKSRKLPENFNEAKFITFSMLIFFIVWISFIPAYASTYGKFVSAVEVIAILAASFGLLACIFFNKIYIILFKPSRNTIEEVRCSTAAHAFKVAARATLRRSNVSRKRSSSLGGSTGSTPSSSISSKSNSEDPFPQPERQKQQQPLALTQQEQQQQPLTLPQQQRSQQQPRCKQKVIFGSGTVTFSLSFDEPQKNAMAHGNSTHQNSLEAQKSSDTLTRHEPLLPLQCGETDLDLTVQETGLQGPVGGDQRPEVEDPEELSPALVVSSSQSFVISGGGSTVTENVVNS

[2] = system: Parathyroid Cell Calcium Receptor; assay: EC50 in parathyroid cells or HEK 293/pHuPCaR4.0 cells loaded with fura-2; type: cell-based, calves and humans; settings: parathyroid cells or HEK 293/pHuPCaR4.0, fura-2; cell type not given per value
Description: This section describes procedures used to obtain parathyroid cells from calves and humans, and to use the parathyroid cells to measure calcium receptor activity.
Human parathyroid glands, were obtained from patients undergoing surgical removal of parathyroid tissue for primary or uremic hyperparathyroidism (uremic HPT), and were treated similarly to bovine tissue.
Glands were trimmed of excess fat and connective tissue and then minced with fine scissors into cubes approximately 2-3 mm on a side. Dissociated parathyroid cells were prepared by collagenase digestion and then purified by centrifugation in Percoll buffer.
Primary culture also has the advantage that cells can be labeled with isotopes to near isotopic equilibrium, as is necessary for studies involving measurements of inositol phosphate metabolism.
ITS+ is a premixed solution containing insulin, transferrin, selenium, and bovine serum albumin (BSA)-linolenic acid (Collaborative Research, Bedford, Mass.). The cells were then transferred to plastic flasks (75 or 150 cm^2; Falcon) and incubated overnight at 37° C. in a humid atmosphere of 5% CO2. No serum is added to these overnight cultures, since its presence allows the cells to attach to the plastic, undergo proliferation, and dedifferentiate.
The cells were then pelleted, resuspended in the same buffer, but lacking the ester, and incubated a further 15 minutes at 37° C. The cells were subsequently washed twice with PCB containing 0.5 mM CaCl2 and 0.5% BSA and maintained at room temperature (about 20° C.). Immediately before use, the cells were diluted five-fold with prewarmed 0.5 mM CaCl2 -PCB to obtain a final BSA concentration of 0.1%. The concentration of cells in the cuvette used for fluorescence recording was 1-2×10^6 /ml.
The fluorescence of indicator-loaded cells was measured at 37° C. in a spectrofluorimeter (Biomedical Instrumentation Group, University of Pennsylvania, Philadelphia, Pa.) equipped with a thermostated cuvette holder and magnetic stirrer using excitation and emission wavelengths of 340 and 510 nm, respectively. […] To correct the calibration for dye leakage, cells were placed in the cuvette and stirred at 37° C. for 2-3 minutes. The cell suspension was then removed, the cells pelleted, and the supernatant returned to a clean cuvette. […] This estimate was subtracted from the apparent Fmin.
HEK 293 cells transfected with pHuPCaR4.0 were loaded with fura-2 by incubating the cells in Dulbecco's modified Eagle's media buffered with 20 mM HEPES containing about 5 μM […] for one hour at room temperature. Cell were then rinsed with Hank's balanced salt solution buffered with 20 mM HEPES containing 1 mM CaCl2 and 1 mM MgCl2. Compounds to be tested were then added to the cells and fluorescence was measured (excitation and emission wavelengths of 340 and 510 nm, respectively).

SMILES | % activity ([1]; 33 ng/mL) [%] | % activity ([1]; 330 ng/mL) [%] | EC50 [2] [µM] | % activity ([1]; 3300 ng/mL) [%]
CC(N[C@H](C)c1ccccc1)c1ccc2ccccc2c1 (stereo partly drawn) [Compound 4H, N-[1-(2-naphthyl)ethyl]-1-phenylethylamine] | 37 | 77 | ≥ 3 | 
COc1cccc([C@@H](C)NCCCc2cccc(F)c2)c1 [Compound 4N] | 65 | 100 | 0.8 | 
C[C@@H](NCc1ccc2ccccc2c1)c1cccc2ccccc12 [Compound 9C] | 82 | 104 | 0.6 | 
CC(C)C(N[C@H](C)c1cccc2ccccc12)c1ccc2ccccc2c1 (stereo partly drawn) [Compound 10F] | 84 | 96 | 0.89 | 
C[C@@H](NCCCc1ccccc1Cl)c1cccc2ccccc12 [Compound 12Z, N-3-(2-chlorophenyl)-1-propyl-(R)-1-(1-naphthyl) ethylamine hydrochloride] |  |  | 0.11 | 
CCCOc1ccc(CN[C@H](C)c2cccc3ccccc23)cc1 [Compound 13Q] | 46 | 95 | ~0.8 | 
C[C@@H](NCc1ccc(C(F)(F)F)cc1)c1cccc2ccccc12 [Compound 13S] | 87 | 102 | < 0.13 | 
C[C@@H](NCc1ccc2c(c1)OCCO2)c1cccc2ccccc12 [Compound 13X] | 65 | 102 | < 0.75 | 
COc1ccc([C@H](C)N[C@H](C)c2cccc3ccccc23)cc1 [Compound 14V] |  |  | 1.7 | 
COc1cccc([C@@H](C)NC2CCN(Cc3ccccc3)CC2)c1 [Compound 20F] |  |  | < 1 | 
CCC(CCc1ccccc1)NC(C)c1cccc(OC)c1 (stereo not drawn) [Compound 20S] |  |  | 4.2 | 
C[C@H](CCc1cccc(C(F)(F)F)c1)N[C@@H](C)c1cccc2ccccc12 [Compound 25C, (S,R)-N-[4-(3-trifluoromethylphenyl)-2-butyl]-1-(1-naphthyl)ethylamine] |  |  | > 2 | 
C[C@H](CCc1cccc(C(F)(F)F)c1)N[C@H](C)c1cccc2ccccc12 [Compound 25D, (R,R)-N-[4-(3-trifluoromethylphenyl)-2-butyl]-1-(1-naphthyl)ethylamine] |  |  | 0.019 | 
COc1cccc([C@@H](C)NCc2ccc3c(c2)OCO3)c1 [Compound 25J] | 105 | 123 |  | 119
COc1cccc([C@@H](C)NCc2ccc(OC)c(OC)c2)c1 [Compound 25K] | 86 | 107 |  | 124
C[C@@H](NCc1cccc2ccccc12)c1cccc2ccccc12 [Compound 25L] | 85 | 97 |  | 97
COc1cccc([C@@H](C)NCC(C)c2ccccc2)c1 (stereo partly drawn) [Compound 25M] | 79 | 100 |  | 118
COc1cccc([C@@H](C)NCC(C)c2ccccc2)c1 (stereo partly drawn) [Compound 25N] | 46 | 73 |  | 94
COc1cccc([C@@H](C)NCc2ccc3c(c2)OCCO3)c1 [Compound 25O] | 96 | 115 |  | 126
COc1cccc([C@@H](C)NC2Cc3ccccc3C2)c1 [Compound 25P] | 75 | 81 |  | 90
COc1cccc([C@@H](C)NCCc2ccccc2)c1 [Compound 25Q] | 77 | 95 |  | 116
COc1ccc([C@H](C)N[C@H](C)c2cccc3ccccc23)cc1C [Compound 25U] | 95 | 107 |  | 107
COc1ccc([C@H](C)N[C@@H](C)c2cccc3ccccc23)cc1C [Compound 25V] | 43 | 59 |  | 89
COc1ccc([C@@H](C)N[C@@H](C)c2cccc3ccccc23)cc1C [Compound 25W] | 42 | 69 |  | 95
